Assay results: the supplement of paper PMC10307832

Key:
Experiment in all cases: relative viability (nuclei count vs DMSO), 5 days (fraction); higher = more cells survive
BI-2536 + Palbociclib = compound: CC[C@@H]1C(=O)N(C)c2cnc(Nc3ccc(C(=O)NC4CCN(C)CC4)cc3OC)nc2N1C1CCCC1 [BI-2536] + CC(=O)c1c(C)c2cnc(Nc3ccc(N4CCNCC4)cn3)nc2n(C2CCCC2)c1=O [Palbociclib] (partner 0.5 µM)
Method in brief: (§1)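 Lung cancer cell lines were pin-tool dosed in 1536-well plates on the day after seeding, with either a lone drug or a fixed anchor-drug dose plus five library-drug doses (not always all listed) in √10 steps. Nuclei were counted on 4× images after 5 days. Relative viability is the ratio of treated-well to vehicle-well nuclei counts, with each value a median of duplicate plates.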

BI-2536 + Pictilisib = compound: CC[C@@H]1C(=O)N(C)c2cnc(Nc3ccc(C(=O)NC4CCN(C)CC4)cc3OC)nc2N1C1CCCC1 [BI-2536] + CS(=O)(=O)N1CCN(Cc2cc3nc(-c4cccc5[nH]ncc45)nc(N4CCOCC4)c3s2)CC1 [Pictilisib] (partner 1 µM)
Method in brief: as §1

[1] = compound: CC1CC(=O)N(C2=CN=C(N=C2N1C3CCCC3)NC4=C(C=C(C=C4)C(=O)NC5CCN(CC5)C)OC)C [NPK76-II-72-1] + CC(=O)c1c(C)c2cnc(Nc3ccc(N4CCNCC4)cn3)nc2n(C2CCCC2)c1=O [Palbociclib] (partner 0.5 µM)
Method in brief: as §1

BI-2536 + Olaparib = compound: CC[C@@H]1C(=O)N(C)c2cnc(Nc3ccc(C(=O)NC4CCN(C)CC4)cc3OC)nc2N1C1CCCC1 [BI-2536] + O=C(c1cc(Cc2n[nH]c(=O)c3ccccc23)ccc1F)N1CCN(C(=O)C2CC2)CC1 [Olaparib] (partner 8 µM)
Method in brief: as §1

| Cell Line | relative viability (BI-2536 + Palbociclib; first compound 0.01 µM) | relative viability (BI-2536 + Palbociclib; first compound 0.03162 µM) | relative viability (BI-2536 + Palbociclib; first compound 0.1 µM) | relative viability (BI-2536 + Palbociclib; first compound 0.3162 µM) | relative viability (BI-2536 + Palbociclib; first compound 1 µM) | relative viability (BI-2536 + Pictilisib; first compound 0.01 µM) | relative viability (BI-2536 + Pictilisib; first compound 0.03162 µM) | relative viability (BI-2536 + Pictilisib; first compound 0.1 µM) | relative viability (BI-2536 + Pictilisib; first compound 0.3162 µM) | relative viability (BI-2536 + Pictilisib; first compound 1 µM) | relative viability ([1]; first compound 0.01 µM) | relative viability ([1]; first compound 0.03162 µM) | relative viability ([1]; first compound 0.1 µM) | relative viability ([1]; first compound 0.3162 µM) | relative viability ([1]; first compound 1 µM) | relative viability (BI-2536 + Olaparib; first compound 0.01 µM) | relative viability (BI-2536 + Olaparib; first compound 0.03162 µM) | relative viability (BI-2536 + Olaparib; first compound 0.1 µM) | relative viability (BI-2536 + Olaparib; first compound 0.3162 µM) | relative viability (BI-2536 + Olaparib; first compound 1 µM) |
| --- | --- | --- | --- | --- | --- | --- | --- | --- | --- | --- | --- | --- | --- | --- | --- | --- | --- | --- | --- | --- |
| 201T | 0.367 | 0.344 | 0.347 | 0.314 | 0.287 | 0.686 | 0.618 | 0.586 | 0.253 | 0.308 | 0.379 | 0.385 | 0.348 | 0.356 | 0.364 | 0.879 | 0.796 | 0.853 | 0.382 | 0.205 |
| A549 | – | – | – | – | – | 0.46 | 0.461 | 0.0515 | 0.0559 | 0.0422 | – | – | – | – | – | 0.267 | 0.444 | 0.125 | 0.0214 | 0.0368 |
| A-427 | 0.519 | 0.498 | 0.453 | 0.219 | 0.203 | 0.776 | 0.707 | 0.606 | 0.0766 | 0.122 | 0.494 | 0.537 | 0.529 | 0.532 | 0.565 | 0.727 | 0.593 | 0.385 | 0.191 | 0.176 |
| ABC-1 | 0.561 | 0.629 | 0.374 | 0.358 | 0.423 | 0.81 | 0.609 | 0.214 | 0.31 | 0.243 | 0.522 | 0.646 | 0.791 | 0.511 | 0.672 | 0.657 | 0.876 | 0.423 | 0.406 | 0.299 |
| BEN | 0.481 | 0.506 | 0.455 | 0.401 | 0.366 | 0.574 | 0.48 | 0.389 | 0.235 | 0.209 | 0.432 | 0.478 | 0.45 | 0.509 | 0.48 | 1.09 | 0.984 | 0.779 | 0.382 | 0.364 |
| CAL-12T | 0.431 | 0.351 | 0.249 | 0.127 | 0.132 | 0.536 | 0.401 | 0.178 | 0.181 | 0.141 | 0.334 | 0.498 | 0.517 | 0.404 | 0.491 | 0.682 | 0.596 | 0.493 | 0.167 | 0.19 |
| COR-L23 | 0.298 | 0.242 | 0.139 | 0.117 | 0.127 | 0.636 | 0.593 | 0.101 | 0.0743 | 0.0991 | 0.264 | 0.304 | 0.314 | 0.29 | 0.342 | 0.384 | 0.288 | 0.156 | 0.111 | 0.111 |
| COR-L 105 | 0.422 | 0.392 | 0.353 | 0.297 | 0.351 | 0.437 | 0.358 | 0.23 | 0.237 | 0.216 | 0.389 | 0.417 | 0.379 | 0.439 | 0.469 | 0.655 | 0.668 | 0.679 | 0.404 | 0.296 |
| Calu-6 | – | – | – | – | – | 0.894 | 0.396 | 0.107 | 0.0926 | 0.0965 | – | – | – | – | – | 0.533 | 0.524 | 0.243 | 0.0982 | 0.0892 |
| ChaGo-K-1 | 0.908 | 0.845 | 0.785 | 0.187 | 0.188 | 0.643 | 0.535 | 0.243 | 0.275 | 0.354 | 0.871 | 0.891 | 0.892 | 0.925 | 0.945 | 0.414 | 0.308 | 0.265 | 0.164 | 0.15 |
| EBC-1 | – | – | – | – | – | 0.35 | 0.232 | 0.147 | 0.158 | 0.119 | – | – | – | – | – | 0.616 | 0.612 | 0.377 | 0.139 | 0.133 |
| EKVX | 0.416 | 0.404 | 0.37 | 0.182 | 0.173 | 0.47 | 0.483 | 0.444 | 0.14 | 0.123 | 0.334 | 0.401 | 0.368 | – | 0.464 | 0.856 | 0.827 | 0.582 | 0.211 | 0.177 |
| EMC-BAC-2 | 0.514 | 0.502 | 0.455 | 0.257 | 0.297 | 0.502 | 0.559 | 0.305 | 0.162 | 0.163 | 0.54 | 0.561 | 0.476 | 0.516 | 0.538 | 0.463 | 0.324 | 0.303 | 0.207 | 0.231 |
| EPLC-272H | 0.293 | 0.315 | 0.234 | 0.168 | 0.152 | 0.343 | 0.256 | – | 0.233 | 0.151 | 0.332 | 0.339 | 0.335 | 0.329 | 0.369 | 0.478 | 0.111 | 0.124 | 0.081 | 0.0599 |
| H3255 | 0.341 | 0.299 | 0.314 | 0.248 | 0.259 | 0.503 | 0.503 | 0.305 | 0.176 | 0.182 | 0.351 | 0.319 | 0.305 | 0.3 | 0.304 | 0.529 | 0.401 | 0.406 | 0.298 | 0.275 |
| HARA | 0.265 | 0.346 | 0.295 | 0.151 | 0.136 | 0.372 | 0.535 | 0.147 | 0.072 | 0.0745 | 0.27 | 0.267 | 0.254 | 0.21 | 0.295 | 0.8 | 0.988 | 0.507 | 0.139 | 0.0972 |
| HCC-15 | 0.704 | 0.66 | 0.547 | 0.17 | 0.144 | 0.746 | 0.795 | 0.365 | 0.124 | 0.117 | 0.722 | 0.849 | 0.705 | 0.694 | 0.745 | 0.612 | 0.557 | 0.343 | 0.163 | 0.144 |
